{"source": "patent US4145554A", "about": "“3-Nitropyrazole derivatives” (Eli Lilly and Company, priority 1977, dated 1979)", "key": {"P. multocida [1]": {"system": "P. multocida", "test": "Pasteurellosis in turkeys", "assay_type": "in vivo", "conditions": "100 gm./ton"}, "H. meleagridis": {"system": "H. meleagridis", "test": "Blackhead in poultry, turkeys", "assay_type": "in vivo", "procedure": "One- to three-week-old chicks and turkey poults were obtained from homogeneous source flocks and allocated into treatment groups. Some groups were held as infected, untreated controls, and other groups were treated with 3-nitropyrazoles by administering the compounds in the birds' feed. Various concentrations of the pyrazoles were administered to determine the least concentration which protected the birds. A few days after the administration of medicated feed began, all of the birds were challenged by rectally administering a suspension of at least 5,000 H. meleagridis protozoa per chick. The challenge organisms had been originally obtained from infected chickens, and were grown in vitro to provide a supply of organisms for testing.\nThe birds were held for about seven days after the challenge was administered, during which time the administration of pyrazole-medicated feed was continued. Then all of the chicks, including the untreated, infected controls, were sacrificed and necropsied. The cecum and the liver of each bird were examined for characteristic H. meleagridis lesions.\nFor each compound, the lowest feed concentration which gave an active response is indicated. While feed consumption data were not taken during the tests, the birds ate at such a rate that a feed concentration of 0.02 percent is equivalent to a treatment rate of about 10 mg./kg./day."}, "[2]": {"system": "Salmonella typhimurium 1503", "test": "in vitro tube dilution test (MIC)", "assay_type": "cell-based", "conditions": "Salmonella enterica, Salmonella typhimurium 1503 (poult intestine)"}, "Salmonella sp.": {"system": "Salmonella sp.", "test": "in vitro tube dilution test (MIC)", "assay_type": "cell-based", "description": "Our compound, 1-(2-hydroxyethyl)-3-nitro-4-pyrazolecarboxamide, has been extensively tested in vitro to determine the range of microorganisms against which it is active. The table of data below reports the minimum inhibitory concentration (MIC) at which the compound is effective in controlling a variety of microorganisms in a standard tube dilution test system. The MIC is reported as micrograms of compound per milliliter."}, "Mycoplasma hyosynoviae": {"system": "Mycoplasma hyosynoviae", "test": "in vitro tube dilution test (MIC)", "assay_type": "cell-based"}, "Erysipelas insidiosa": {"system": "Erysipelas insidiosa", "test": "in vitro tube dilution test (MIC)", "assay_type": "cell-based"}, "Shigella sp.": {"system": "Shigella sp.", "test": "agar dilution technique (MIC)", "assay_type": "cell-based"}, "P. multocida [3]": {"system": "P. multocida", "test": "Pasteurellosis in chickens", "assay_type": "in vivo", "conditions": "100 gm. per ton of feed"}, "[4]": {"system": "Arizona hinshaw (paracolon)", "test": "in vitro tube dilution test (MIC)", "assay_type": "cell-based"}, "[5]": {"system": "naturally-occurring pneumoenteritis complex infection (pasteurella species, E. coli and salmonellae)", "test": "Pneumoenteritis complex disease in calves, first test", "assay_type": "in vivo", "conditions": "for Mortality / Avg. Wt. Gain: milk replacer, 56 days; for Avg. Wt. Gain: survivors", "procedure": "Our compound, 1-(2-hydroxyethyl)-3-nitro-4-pyrazolecarboxamide, was evaluated in the control of a naturally-occurring pneumoenteritis complex infection of calves. […] A group of 24 calves was allocated randomly into three treatment groups. The average weights of the treatment groups were nearly identical at the start of the experiment. The calves were housed in quarters which were kept as clean as typical calf quarters, but in which calves suffering from pneumoenteritis complex had previously been housed. […] One group was a control group, and was fed on a typical milk replacer diet. The other two groups received 200 mg. and 400 mg. per day respectively of the 3-nitro-pyrazole compound, mixed in their milk replacer diets.\nThe calves were carefully observed daily to detect signs of illness as quickly as such signs appeared. The calves were weighed at weekly intervals. Various organs were removed from the calves which died during the experiment, and cultures were prepared from the organs to identify microorganisms. At the end of the 56-day experiment, cultures were prepared from nasal and rectal swabs of the surviving calves, and microorganisms in the cultures were identified."}, "Treponema hyodysenteriae": {"system": "Treponema hyodysenteriae", "test": "in vitro tube dilution test (MIC)", "assay_type": "cell-based", "conditions": "Brachyspira hyodysenteriae"}, "Pseudomonas aeruginosa": {"system": "Pseudomonas aeruginosa", "test": "agar dilution technique (MIC)", "assay_type": "cell-based"}, "Pasteurella multocida": {"system": "Pasteurella multocida", "test": "in vitro tube dilution test (MIC)", "assay_type": "cell-based", "conditions": "tube dilution, read-out: MIC", "in_short": "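Standard tube dilution test; MIC is the lowest compound concentration controlling growth, given in μg/mL.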"}, "Streptococcus pyogenes": {"system": "Streptococcus pyogenes", "test": "agar dilution technique (MIC)", "assay_type": "cell-based"}, "P. multocida [6]": {"system": "P. multocida", "test": "Mice infected with P. multocida, compound injected subcutaneously", "assay_type": "in vivo", "conditions": "2.5 mg./kg. subcutaneous", "procedure": "A second test was conducted in much the same way, except that the 3-nitropyrazole was injected to the treated mice subcutaneously at the same time they were infected with the P. multocida culture."}, "[7]": {"system": "Enterobacter cloacae and aerogenes", "test": "agar dilution technique (MIC)", "assay_type": "cell-based"}, "Vibrio coli": {"system": "Vibrio coli", "test": "in vitro tube dilution test (MIC)", "assay_type": "cell-based", "conditions": "Campylobacter coli"}, "[8]": {"system": "naturally-occurring pneumoenteritis complex infection (pasteurella species, E. coli and salmonellae)", "test": "Pneumoenteritis complex disease in calves, second test", "assay_type": "in vivo", "procedure": "The test reported below was conducted in general identically with the test above. All of the calves used in the test were approximately 3 days old when the test began, and the test ran for 56 days.\nThe treated group received 200 mg./day/calf (about 3-5 mg./kg./day) of 1-(2-hydroxyethyl)-3-nitro-4-pyrazolecarboxamide, which was administered in the calves' milk replacer diet.\nThe table below reports the average weight gain of the surviving animals and the mortality of the calves in each group."}, "Streptococcus sp.": {"system": "Streptococcus sp.", "test": "in vitro tube dilution test (MIC)", "assay_type": "cell-based"}, "[9]": {"conditions": "200 mg./day/calf (3-5 mg./kg./day)"}, "[10]": {"conditions": "400 mg./day/calf (6-10 mg./kg./day)"}}, "note": "Where “and” joins values, the source holds several entries; their conditions need not be identical. Equal values may be shown once. Read-outs that look alike come from different tables or passages of the source."}
{"smiles": "NC(=O)c1cn(CCO)nc1[N+](=O)[O-]", "note": "[Compound 32, 1-(2-hydroxyethyl)-3-nitro-4-pyrazolecarboxamide]", "values": [{"measurement": "Mortality Rate", "setting": "P. multocida [1]", "value": 20, "unit": "%"}, {"measurement": "Culture Isolation", "setting": "P. multocida [1]; about 5 mg./kg./day", "value": "1/5"}, {"measurement": "Mortality Rate", "setting": "P. multocida [1]; about 5 mg./kg./day", "value": "1/5"}, {"measurement": "Active Level (lowest feed concentration which gave an active response)", "setting": "H. meleagridis", "value": ".02%"}, {"measurement": "MIC", "setting": "[2]", "value": "< 1.56", "unit": "µg/mL"}, {"measurement": "MIC", "setting": "Salmonella sp.", "value": 3.12, "unit": "µg/mL"}, {"measurement": "MIC", "setting": "Mycoplasma hyosynoviae", "value": 50, "unit": "µg/mL"}, {"measurement": "MIC", "setting": "Erysipelas insidiosa", "value": "> 50", "unit": "µg/mL"}, {"measurement": "MIC", "setting": "Shigella sp.", "value": 16, "unit": "µg/mL"}, {"measurement": "Mortality", "setting": "P. multocida [3]", "value": "about 12%"}, {"measurement": "presence of isolable P. multocida in treated birds", "setting": "P. multocida [3]", "value": "about half of the treated birds"}, {"measurement": "Culture Isolation", "setting": "P. multocida [3]; individual 8-bird group", "value": "6/8 and 3/8"}, {"measurement": "Mortality Rate", "setting": "P. multocida [3]; individual 8-bird group", "value": "2/8 and 0/8"}, {"measurement": "Culture Isolation, Total", "setting": "P. multocida [3]; total of two groups", "value": "9/16"}, {"measurement": "Mortality Rate, Total", "setting": "P. multocida [3]; total of two groups", "value": "2/16"}, {"measurement": "MIC", "setting": "[4]", "value": 6.25, "unit": "µg/mL"}, {"measurement": "Mortality", "setting": "[5]; [9]", "value": "1/8"}, {"measurement": "Avg. Wt. Gain", "setting": "[5]; [9]", "value": 36.6, "unit": "lbs."}, {"measurement": "Mortality", "setting": "[5]; [10]", "value": "1/8"}, {"measurement": "Avg. Wt. Gain", "setting": "[5]; [10]", "value": 55.3, "unit": "lbs."}, {"measurement": "surviving treated calves with P. multocida or hemolytica in nasal swabs", "setting": "[5]; 200 and 400 mg. per day groups, end of 56 days", "value": "11 of the 14 surviving treated calves"}, {"measurement": "surviving calves with E. coli in rectal swabs", "setting": "[5]; of 14 surviving treated calves, end of 56 days", "value": "12 of the surviving calves"}, {"measurement": "MIC", "setting": "Treponema hyodysenteriae", "value": 3.12, "unit": "µg/mL"}, {"measurement": "MIC", "setting": "Pseudomonas aeruginosa", "value": 128, "unit": "µg/mL"}, {"measurement": "MIC", "setting": "Pasteurella multocida; Cattle Isolates", "value": "< 1.56", "unit": "µg/mL"}, {"measurement": "MIC", "setting": "Pasteurella multocida; Swine Isolate (first line)", "value": "> 50", "unit": "µg/mL"}, {"measurement": "MIC", "setting": "Pasteurella multocida; Swine Isolate (second line)", "value": 6.25, "unit": "µg/mL"}, {"measurement": "MIC", "setting": "Pasteurella multocida; Turkey Isolates", "value": "> 50", "unit": "µg/mL"}, {"measurement": "MIC", "setting": "Streptococcus pyogenes", "value": 32, "unit": "µg/mL"}, {"measurement": "Survival", "setting": "P. multocida [6]", "value": "8/10"}, {"measurement": "MIC", "setting": "[7]", "value": 32, "unit": "µg/mL"}, {"measurement": "MIC", "setting": "Vibrio coli", "value": 6.25, "unit": "µg/mL"}, {"measurement": "Mortality", "setting": "[8]; 200 mg./day/calf", "value": "about 12%"}, {"measurement": "surviving treated calves with E. coli in rectal swabs", "setting": "[8]; 200 mg./day/calf", "value": "all of the surviving treated calves"}, {"measurement": "survivors with P. multocida organisms in nasal secretions", "setting": "[8]; 200 mg./day/calf", "value": "6 of the survivors"}, {"measurement": "Mortality", "setting": "[8]; 200 mg./day/calf (about 3-5 mg./kg./day), 56 days", "value": "1/8"}, {"measurement": "Avg. Wt. Gain", "setting": "[8]; 200 mg./day/calf (about 3-5 mg./kg./day), 56 days, survivors", "value": 52.1, "unit": "lbs."}, {"measurement": "MIC", "setting": "Streptococcus sp.", "value": 25, "unit": "µg/mL"}]}
